Here are results for eleven molecules from PubChem BioAssay (NCI).

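These data come from cells grown in 96-well plates and exposed to compound for 48 hours at five concentrations. Here, GI50 denotes the concentration required for 50% inhibition of growth. TGI: concentration producing complete growth inhibition.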 Where only a bound is given, the exact number is not on record here.

Test systems include DU-145 prostate; CAKI-1 renal; HCT-15 colon; RXF 393 renal; SF-539 CNS; SK-OV-3 ovarian; HOP-62 NSCLC; SR leukemia; HCC-2998 colon; UO-31 renal.
Assay in all cases: growth of human tumour cells (NCI), 48 h

For `COC(=O)C1OC(SCCN)C(O)C(O)C1O` (centres undefined), the TGI in the test with DU-145 prostate, with CAKI-1 renal, in the test with HCT-15 colon, in the test with RXF 393 renal, in the test on SF-539 CNS and in the test on SK-OV-3 ovarian was above 100 µM in each case. For the same molecule, the TGI with HOP-62 NSCLC and with SR leukemia was above 100 µM throughout.
With `CCSc1nnc(-c2ccc3ccccc3c2O)n1-c1ccccc1`, the GI50 in the test with DU-145 prostate was above 100 µM; in the test with HCT-15 colon, 2.72 µM; with RXF 393 renal it was above 100 µM; in the test with SF-539 CNS, above 100 µM; in the test with SK-OV-3 ovarian, above 100 µM; in the test with HCC-2998 colon, above 100 µM. Also, the GI50 in the test with HOP-62 NSCLC is 21.5 µM. Moreover, the TGI with DU-145 prostate, with HCT-15 colon, in the test with RXF 393 renal, with SF-539 CNS, with SK-OV-3 ovarian and in the test on HCC-2998 colon was above 100 µM each time. The TGI in the test on HOP-62 NSCLC was above 100 µM.
Turning to `COc1ccc(/C=N/C2=NNC(C)(c3ccccc3O)N2C(Cc2c[nH]c3ccccc23)C(=O)O)cc1` (centres undefined), the GI50 is 4.13 µM in the test with DU-145 prostate; 1.62 µM in the test with UO-31 renal; 2.81 µM in the test on HCT-15 colon; 1.27 µM in the test with RXF 393 renal; 2.75 µM in the test on SF-539 CNS; 2.85 µM with SK-OV-3 ovarian. Besides, the GI50 with HCC-2998 colon was 3.53 µM; in the test with HOP-62 NSCLC, 2.58 µM; in the test on SR leukemia it was 2.76 µM. The TGI in the test with DU-145 prostate turned out to be 17.8 µM; with UO-31 renal, 11.2 µM; in the test with HCT-15 colon it was 11.8 µM; in the test on RXF 393 renal, 6.26 µM; with SF-539 CNS it was 10.3 µM; in the test with SK-OV-3 ovarian it was 14.5 µM. In addition, the results for the TGI in the test on HCC-2998 colon, with HOP-62 NSCLC and in the test with SR leukemia were 13.3 µM, 11.9 µM and 12.4 µM, respectively.
Take `COc1ccc(OC)c(-c2nc3sc(C)cn3c2/C=C2\C(=O)N(C)c3ccccc32)c1`: the GI50 with DU-145 prostate was 29.2 µM; in the test with CAKI-1 renal, 23.8 µM; in the test on UO-31 renal, 21.1 µM; in the test on HCT-15 colon, 19.8 µM; in the test with SF-539 CNS it was 21.8 µM; in the test on SK-OV-3 ovarian it was 28.4 µM. Moreover, the values for the GI50 in the test on HOP-62 NSCLC and with SR leukemia were 22.5 µM and 1.89 µM, respectively. Besides, the TGI with DU-145 prostate is 81.8 µM; with CAKI-1 renal, 65.4 µM; in the test on UO-31 renal, 59.7 µM; with HCT-15 colon, 81.6 µM; in the test on SF-539 CNS, 42.5 µM; with SK-OV-3 ovarian, 71.4 µM. The figures for the TGI in the test with HOP-62 NSCLC and with SR leukemia were 61.4 µM and 18.5 µM, respectively.
In the case of `CN1CCC(n2cnc(-c3ccc(F)cc3)c2-c2ccnc(Nc3ccccc3)n2)CC1`, the GI50 in the test on DU-145 prostate was 10.4 µM; in the test with CAKI-1 renal, 1.79 µM; in the test on UO-31 renal, 0.969 µM; with HCT-15 colon, 6.22 µM; with RXF 393 renal it was 10.5 µM; in the test with SF-539 CNS, 13.2 µM. Further, the values for the GI50 in the test on SK-OV-3 ovarian, in the test on HCC-2998 colon and in the test on HOP-62 NSCLC were 3.81 µM, 6.76 µM and 13.1 µM, respectively. Besides, the TGI with DU-145 prostate was above 25 µM; in the test with CAKI-1 renal, above 15.3 µM; with UO-31 renal, above 11.7 µM; in the test with HCT-15 colon, above 25 µM; in the test on RXF 393 renal, above 25 µM; with SF-539 CNS, above 25 µM. The TGI with SK-OV-3 ovarian, with HCC-2998 colon and in the test with HOP-62 NSCLC was above 25 µM throughout.
As for `CCN(CC)CCOc1ccccc1-n1c(C)ccc1-c1ccccc1`, the GI50 in the test on DU-145 prostate is 17.3 µM; in the test with CAKI-1 renal it was 13.6 µM; in the test on UO-31 renal it was 10.5 µM; in the test with HCT-15 colon, 12.6 µM; in the test on RXF 393 renal, 5.31 µM; in the test with SF-539 CNS it was 16.1 µM. Also, the GI50 in the test on SK-OV-3 ovarian was 17.3 µM; in the test with HCC-2998 colon, 13.9 µM; in the test on HOP-62 NSCLC, 17 µM. For the same molecule, the TGI was 32.3 µM in the test on DU-145 prostate; 28 µM in the test with CAKI-1 renal; 24.4 µM in the test on UO-31 renal; 28.2 µM in the test with HCT-15 colon; 20.1 µM in the test with RXF 393 renal; 31 µM in the test on SF-539 CNS. Further, the figures for the TGI in the test on SK-OV-3 ovarian, in the test with HCC-2998 colon and in the test on HOP-62 NSCLC were 31.4 µM, 28.5 µM and 31.1 µM, respectively.
With `Cc1ccc(Nn2c(SCC(=O)Nc3nc(-c4ccccc4)cs3)nc(C)c2C)cc1`, the GI50 is 9.75 µM in the test with DU-145 prostate; 1.86 µM in the test with CAKI-1 renal; 2.89 µM in the test with UO-31 renal; 5.17 µM with HCT-15 colon; 4.68 µM with SF-539 CNS; 10.6 µM with SK-OV-3 ovarian. Moreover, the GI50 with HOP-62 NSCLC is 18.4 µM. Also, the TGI in the test with DU-145 prostate was 64.6 µM; in the test with CAKI-1 renal it was 6.1 µM; in the test on UO-31 renal it was above 100 µM; in the test with HCT-15 colon, above 100 µM; with SF-539 CNS, 35.2 µM; in the test on SK-OV-3 ovarian, above 100 µM. This molecule came in with a TGI with HOP-62 NSCLC above 100 µM.
For the molecule `COc1ccccc1C(=O)Nc1ccc(Cl)c(C(=O)OC(C)C)c1`, the TGI is above 100 µM in the test with DU-145 prostate; above 100 µM with CAKI-1 renal; 27.9 µM in the test with UO-31 renal; above 100 µM in the test with HCT-15 colon; above 100 µM in the test with RXF 393 renal; above 100 µM in the test with SF-539 CNS. For the same molecule, the TGI in the test on SK-OV-3 ovarian, with HCC-2998 colon and in the test with HOP-62 NSCLC was above 100 µM throughout.
Turning to `C=C(C)C1Cc2cc(C(C)=O)ccc2O1` (centres undefined), the TGI in the test on DU-145 prostate, in the test with CAKI-1 renal, in the test with UO-31 renal, in the test on HCT-15 colon, with SF-539 CNS and with SK-OV-3 ovarian was above 100 µM each time. In the test on HCC-2998 colon, this molecule showed a TGI above 100 µM.
`Cn1c(=O)c2[nH]c(CCS)nc2n(C)c1=O`: the TGI with DU-145 prostate, with CAKI-1 renal, in the test on UO-31 renal, in the test on HCT-15 colon, in the test with RXF 393 renal and with SF-539 CNS was above 100 µM throughout. Further, the TGI in the test with SK-OV-3 ovarian, in the test with HOP-62 NSCLC and in the test with SR leukemia was above 100 µM each time.
With `Nc1nc(N)c2cc(S(=O)(=O)c3ccccc3)ccc2n1`, the GI50 was 5.74 µM in the test on DU-145 prostate; 3.45 µM in the test on CAKI-1 renal; 13.3 µM with UO-31 renal; 1.75 µM in the test on HCT-15 colon; 72.5 µM in the test with RXF 393 renal; 2.05 µM in the test on SF-539 CNS. The GI50 in the test with SK-OV-3 ovarian was 5.41 µM; in the test on HCC-2998 colon, 2.38 µM; in the test with HOP-62 NSCLC, 4.14 µM. Moreover, the TGI in the test on DU-145 prostate, in the test on CAKI-1 renal, in the test on UO-31 renal, with HCT-15 colon, in the test on RXF 393 renal and with SF-539 CNS was above 100 µM each time. Moreover, the TGI in the test on SK-OV-3 ovarian is above 100 µM; with HCC-2998 colon, 32.2 µM; in the test with HOP-62 NSCLC, above 100 µM.
